Assay results published in patent US6589914B2, “Dihalopropene compounds, insecticidal/acaridcidal agents containing same, and intermediates for their production” (Sumitomo Chemical Company, Limited, priority 1994, dated 2003).
Where two headings read alike, the source gives them in different places.

Key:
[1] = test system: Spodoptera litura; test: Insecticidal test against Spodoptera litura (treated artificial diet); type: in vivo; details: 144 h, active ingredient at 500 ppm, 2 ml in 13 g artificial diet, fourth-instar larvae, after 6 days
Experimental: A 200-fold dilution containing an active ingredient at 500 ppm, which had been prepared by diluting with water an emulsifiable concentrate of the test compound obtained according to Formulation Example 1, was absorbed at a volume of 2 ml in 13 g of an artificial diet for Spodoptera litura, which had been prepared in a polyethylene cup having a diameter of 11 cm. Ten fourth-instar larvae of Spodoptera litura were set free in the cup. After 6 days, the survival of larvae was examined to determine the mortality. The test was conducted in duplicate.

[2] = test system: Tetranychus urticae Koch; test: Test against Tetranychus urticae Koch (spray and soil drench on potted bean); type: in vivo; details: active ingredient at 500 ppm, 15 ml sprayed per pot plus 2 ml soil drench, after 8 days
Experimental: Ten female adults of Tetranychus urticae Koch per one leaf were allowed to parasitize to a potting bean at the primary leaf stage harvested for 7 days after seeding, and these pots were placed in a thermostated room at 25° C. After 6 days, a chemical solution containing an active ingredient at 500 ppm, which had been prepared by diluting with water an emulsifiable concentrate of the test compound obtained according to Formulation Example 1, was sprayed at a volume of 15 ml over each pot on a turntable. At the same time, 2 ml of the same solution was drenched in the soil. After 8 days, the degree of damage on the respective plants caused by Tetranychus urticae Koch was examined. The effects were determined according to the following criteria:
−: Damage is scarcely observed.
+: Damage is slightly observed.
++: Damage is observed at the same level as in the non-treated field.

[3] = test system: Heliothis virescens; test: Insecticidal test against Heliothis virescens (treated artificial diet); type: in vivo; details: 144 h
Experimental: A dilution containing an active ingredient at 100 ppm, which had been prepared by diluting with water an emulsifiable concentrate of the test compound obtained according to Formulation Example 1, was incorporated at a volume of 0.2 ml in an artificial diet. A second-instar larva of H. virescens was given the diet and bred in a plastic vessel. Ten insects were used by each treatment. After 6 days, the mortality was determined.

[4] = test system: Plutella xylostella; test: Insecticidal test against Plutella xylostella (spray on potted cabbage); type: in vivo; details: 96 h
Experimental: A chemical solution containing an active ingredient at 50 ppm, which had been prepared by diluting an emulsifiable concentrate of the test compound obtained according to Formulation Example 1 with water containing spreading agent RINOU (Nihon Nouyaku K.K.) to a degree such that the spreading agent had been 1000-fold diluted, was sprayed at a volume 25 ml over each pot of a potting cabbage at the five leaf stage. The treated plants were air dried, on which ten third-instar larvae of Plutella xylostella were set free. After 4 days, the mortality was determined.

[5] = active ingredient at 50 ppm, 25 ml sprayed per pot of cabbage, third-instar larvae, after 4 days, read-out: mortality
[6] = active ingredient at 100 ppm, 0.2 ml in artificial diet, second-instar larva, after 6 days, read-out: mortality

SMILES	melting point	degree of damage on the plants caused by Tetranychus urticae Koch [2]	further results
ClC(Cl)=CCOc1cc(Cl)c(OCc2ccc(Cl)nc2)c(Cl)c1 [Compound 1, 3,5-Dichloro-4-(6-chloro-3-pyridylmethyloxy)-1-(3,3-dichloro-2-propenyloxy)benzene]		“−” or “+”	mortality at 500 ppm [1]: ≥ 80%
ClC(Cl)=CCOc1cc(Cl)c(OCc2ccc(Cl)nc2Cl)c(Cl)c1 [Compound 2, 3,5-Dichloro-4-(2,6-dichloro-3-pyridylmethyloxy)-1-(3,3-dichloro-2-propenyloxy)benzene]			mortality at 500 ppm [1]: ≥ 80%
ClC(Cl)=CCOc1cc(Cl)c(OCc2ccccn2)c(Cl)c1 [Compound 5, 3,5-Dichloro-4-(2-pyridylmethyloxy)-1-(3,3-dichloro-2-propenyloxy)benzene]	48.2 °C		
ClC(Cl)=CCOc1cc(Cl)c(OCCc2cccs2)c(Cl)c1 [Compound 10, 3,5-Dichloro-4-(2-(2-thienyl)ethoxy)-1-(3,3-dichloro-2-propenyloxy)benzene]		“−” or “+”	
ClC(Cl)=CCOc1cc(Cl)c(OCCc2ccsc2)c(Cl)c1 [Compound 14, 3,5-Dichloro-4-(2-(3-thienyl)ethoxy)-1-(3,3-dichloro-2-propenyloxy)benzene]			mortality at 500 ppm [1]: ≥ 80%
ClC(Cl)=CCOc1cc(Cl)c(OCCCc2ccncc2)c(Cl)c1 [Compound 15, 3,5-Dichloro-4-(3-(4-pyridyl)propyloxy)-1-(3,3-dichloro-2-propenyloxy)benzene]		“−” or “+”	
ClC(Cl)=CCOc1cc(Cl)c(OCCCSc2ccccn2)c(Cl)c1 [Compound 30, 3,5-Dichloro-4-(3-(2-pyridylthio)propyloxy)-1-(3,3-dichloro-2-propenyloxy)benzene]		“−” or “+”	
CC(C)(COc1c(Cl)cc(OCC=C(Cl)Cl)cc1Cl)Oc1cccc(Cl)n1 [Compound 33, 3,5-Dichloro-4-(2-methyl-2-(2-(6-chloro)pyridyloxy)propyloxy)-1-(3,3-dichloro-2-propenyloxy)benzene]		“−” or “+”	
FC(F)(F)c1ccc(OCCCOc2c(Cl)cc(OCC=C(Cl)Cl)cc2Cl)nc1 [Compound 36, 3,5-Dichloro-4-(3-(5-trifluoromethyl-2-pyridyloxy)propyloxy)-1-(3,3-dichloro-2-propenyloxy)benzene]			mortality at 100 ppm [3]: ≥ 80%; mortality at 50 ppm [4]: ≥ 80%
FC(F)(F)c1cnc(OCCCOc2c(Cl)cc(OCC=C(Cl)Cl)cc2Cl)c(Cl)c1 [Compound 37, 3,5-Dichloro-4-(3-(3-chloro-5-trifluoromethyl-2-pyridyloxy)propyloxy)-1-(3,3-dichloro-2-propenyloxy)benzene]			mortality at 50 ppm [4, 5]: ≥ 80%
FC(F)(F)c1ccc(OCCCCOc2c(Cl)cc(OCC=C(Cl)Cl)cc2Cl)nc1 [Compound 42, 3,5-Dichloro-4-(4-(5-trifluoromethyl-2-pyridyloxy)butyloxy)-1-(3,3-dichloro-2-propenyloxy)benzene]			mortality at 100 ppm [3, 6]: ≥ 80%; mortality at 50 ppm [4, 5]: ≥ 80%
FC(F)(F)c1ccc(OCCCCCOc2c(Cl)cc(OCC=C(Cl)Cl)cc2Cl)nc1 [Compound 43, 3,5-Dichloro-4-(5-(5-trifluoromethyl-2-pyridyloxy)pentyloxy)-1-(3,3-dichloro-2-propenyloxy)benzene]			mortality at 100 ppm [3, 6]: ≥ 80%

Further lines, with some results ahead:

melting point	SMILES	degree of damage on the plants caused by Tetranychus urticae Koch [2]	further results
44.6 °C	ClC(Cl)=CCOc1cc(Cl)c(OCc2cccs2)c(Cl)c1 [Compound 6, 3,5-Dichloro-4-(2-thienylmethyloxy)-1-(3,3-dichloro-2-propenyloxy)benzene]		
46 °C	ClC(Cl)=CCOc1cc(Cl)c(OCc2ccco2)c(Cl)c1 [Compound 7, 3,5-Dichloro-4-(2-furanylmethyloxy)-1-(3,3-dichloro-2-propenyloxy)benzene]	“−” or “+”	
105.9 °C	ClC(Cl)=CCOc1cc(Cl)c(OCc2cccnc2)c(Cl)c1 [Compound 8, 3,5-Dichloro-4-(3-pyridylmethyloxy)-1-(3,3-dichloro-2-propenyloxy)benzene]		
74 °C	ClC(Cl)=CCOc1cc(Cl)c(OCc2ccncc2)c(Cl)c1 [Compound 9, 3,5-Dichloro-4-(4-pyridylmethyloxy)-1-(3,3-dichloro-2-propenyloxy)benzene]		
30.4 °C	CN1C=CSC1CCOc1c(Cl)cc(OCC=C(Cl)Cl)cc1Cl (stereo not shown) [Compound 11, 3,5-Dichloro-4-(2-(3-methylthiazol-2-yl)ethoxy)-1-(3,3-dichloro-2-propenyloxy)benzene]		
74.7 °C	ClC(Cl)=CCOc1cc(Cl)c(OCCSc2ccncc2)c(Cl)c1 [Compound 19, 3,5-Dichloro-4-(2-(4-pyridylthio)ethoxy)-1-(3,3-dichloro-2-propenyloxy)benzene]		
48.3 °C	ClC(Cl)=CCOc1cc(Cl)c(OCCCc2cccnc2)c(Cl)c1 [Compound 20, 3,5-Dichloro-4-(3-(3-pyridyl)propyloxy)-1-(3,3-dichloro-2-propenyloxy)benzene]		
92.3 °C	O=C(OCCCOc1c(Cl)cc(OCC=C(Cl)Cl)cc1Cl)c1cnc2ccccc2c1 [Compound 28, 3-(2,6-Dichloro-4-(3,3-dichloro-2-propenyloxy)phenoxy)propyl 3-quinolinate]		
61.2 °C	ClC(Cl)=CCOc1cc(Cl)c(OCCc2nc3ccccc3o2)c(Cl)c1 [Compound 32, 3,5-Dichloro-4-(2-(2-benzoxazolyl)ethoxy)-1-(3,3-dichloro-2-propenyloxy)benzene]	“−” or “+”	
120.7 °C	ClC(Cl)=CCOc1cc(Cl)c(OCCCSc2nc3ccccc3[nH]2)c(Cl)c1 [Compound 39, 3,5-Dichloro-4-(3-(2-benzimidazolylthio)propyloxy)-1-(3,3-dichloro-2-propenyloxy)benzene]		
76.2 °C	ClC(Cl)=CCOc1cc(Cl)c(NCCCOc2ccccn2)c(Cl)c1 [Compound 71, 3,5-Dichloro-4-(3-(2-pyridyloxy)propylamino)-1-(3,3-dichloro-2-propenyloxy)benzene]		
